{"source": "patent US20200011856A1", "about": "“Method for Determining the Effectiveness of Treatment for the Prevention of Heartworm Disease” (priority 2017, published 2020)", "system": "Dirofilaria immitis JYD strain (ivermectin-resistant)", "experiment": "Infection of NSG mice with ivermectin-resistant JYD strain D. immitis L3, treatment, recovery and count of worms", "type": "in vivo", "conditions": "for % Rec, Mean: group mean; for % Rec: individual mice", "key": {"[1]": {"conditions": "7823 1.0 mg/kg Days 1, 15, 30, 50 JYD Di L3 per NSG mouse, recovery Days 40-42, Table 20"}, "[2]": {"conditions": "7823 5.0 mg/kg Days 1, 15, 30, 50 JYD Di L3 per NSG mouse, recovery Days 40-42, Table 20"}}, "note": "Several values for one entry are separate records, joined by “and”; a condition that tells them apart may be missing. Identical values can stand only once.", "data": [{"smiles": "CC(C)C[C@H]1C(=O)O[C@H](C)C(=O)N(C)[C@@H](CC(C)(C)F)C(=O)O[C@H](Cc2ccc(OC(F)(F)F)cc2)C(=O)N(C)[C@@H](CC(C)C)C(=O)O[C@H](C)C(=O)N(C)[C@@H](CC(C)(C)F)C(=O)O[C@H](Cc2ccc(OC(F)(F)F)cc2)C(=O)N1C", "note": "[compound 2677]", "values": [{"measurement": "% Rec, Mean", "setting": "2677 1 mg/kg Days 1, 15, 30, 50 JYD Di L3 per NSG mouse, recovery Days 41 and 42, Table 18", "value": 8, "unit": "%"}, {"measurement": "% Rec", "setting": "2677 1 mg/kg Days 1, 15, 30, 50 JYD Di L3 per NSG mouse, recovery Days 41 and 42, Table 18, 1 mg/kg", "value": "6% and 4% (3×) and 2% and 18% and 16%"}, {"measurement": "% Red", "setting": "in vivo, 1 mg/kg", "value": "% Red: 81%"}, {"measurement": "Survival, Mean", "setting": "in vivo, 1 mg/kg", "value": 4}]}, {"smiles": "CC(C)C[C@H]1C(=O)O[C@H](C)C(=O)N(C)[C@@H](CC(C)(C)F)C(=O)O[C@H](Cc2ccc(C(F)(F)F)cc2)C(=O)N(C)[C@@H](CC(C)C)C(=O)O[C@H](C)C(=O)N(C)[C@@H](CC(C)(C)F)C(=O)O[C@H](Cc2ccc(C(F)(F)F)cc2)C(=O)N1C", "note": "[compound 3615]", "values": [{"measurement": "% Red", "setting": "3615 1 mg/kg Days 1, 15, 30, 50 JYD Di L3 per NSG mouse, Table 18, vs Control", "value": "% Red: 40%"}, {"measurement": "% Rec, Mean", "setting": "3615 1 mg/kg Days 1, 15, 30, 50 JYD Di L3 per NSG mouse, recovery Days 41 and 42, Table 18", "value": 26, "unit": "%"}, {"measurement": "% Rec", "setting": "3615 1 mg/kg Days 1, 15, 30, 50 JYD Di L3 per NSG mouse, recovery Days 41 and 42, Table 18, 1 mg/kg", "value": "24% (2×) and 26% and 30% and 28% and 36% and 16%"}, {"measurement": "Survival, Mean", "setting": "in vivo, 1 mg/kg", "value": 13}]}, {"smiles": "C[C@H]1OC(=O)[C@H](CC(C)(C)C)N(C)C(=O)[C@@H](Cc2ccc(OC(F)(F)F)cc2)OC(=O)[C@H](CC(C)(C)F)N(C)C(=O)[C@@H](C)OC(=O)[C@H](CC(C)(C)C)N(C)C(=O)[C@@H](Cc2ccc(OC(F)(F)F)cc2)OC(=O)[C@H](CC(C)(C)F)N(C)C1=O", "note": "[compound 5010]", "values": [{"measurement": "% Red", "setting": "5010 1 mg/kg Days 1, 15, 30, 50 JYD Di L3 per NSG mouse, Table 18, vs Control", "value": "% Red: 33%"}, {"measurement": "% Rec, Mean", "setting": "5010 1 mg/kg Days 1, 15, 30, 50 JYD Di L3 per NSG mouse, recovery Days 41 and 42, Table 18", "value": 29, "unit": "%"}, {"measurement": "% Rec", "setting": "5010 1 mg/kg Days 1, 15, 30, 50 JYD Di L3 per NSG mouse, recovery Days 41 and 42, Table 18, 1 mg/kg", "value": "24% (2×) and 36% and 14% and 34% and 30% and 38%"}, {"measurement": "Survival, Mean", "setting": "in vivo, 1 mg/kg", "value": 14}]}, {"smiles": "C[C@H]1OC(=O)[C@H](CC2CC2)N(C)C(=O)[C@@H](Cc2ccc(C(C)(C)C)cc2)OC(=O)[C@H](CC(C)(C)F)N(C)C(=O)[C@@H](C)OC(=O)[C@H](CC2CC2)N(C)C(=O)[C@@H](Cc2ccc(C(C)(C)C)cc2)OC(=O)[C@H](CC(C)(C)F)N(C)C1=O", "note": "[compound 7823]", "values": [{"measurement": "% Red", "setting": "7823 0.1 mg/kg Days 1, 15, 30, 50 JYD Di L3 per NSG mouse, Table 20, vs Control", "value": "% Red: 83%"}, {"measurement": "% Rec, Mean", "setting": "7823 0.1 mg/kg Days 1, 15, 30, 50 JYD Di L3 per NSG mouse, recovery Days 40-42, Table 20", "value": 4, "unit": "%"}, {"measurement": "% Rec", "setting": "7823 0.1 mg/kg Days 1, 15, 30, 50 JYD Di L3 per NSG mouse, recovery Days 40-42, Table 20, 0.1 mg/kg", "value": "6% (2×) and 0% and 8% and 2%"}, {"measurement": "% Red", "setting": "7823 0.25 mg/kg Days 1, 15, 30, 50 JYD Di L3 per NSG mouse, Table 20, vs Control", "value": "% Red: 91%"}, {"measurement": "% Rec, Mean", "setting": "7823 0.25 mg/kg Days 1, 15, 30, 50 JYD Di L3 per NSG mouse, recovery Days 40-42, Table 20", "value": 2, "unit": "%"}, {"measurement": "% Rec", "setting": "7823 0.25 mg/kg Days 1, 15, 30, 50 JYD Di L3 per NSG mouse, recovery Days 40-42, Table 20, 0.25 mg/kg", "value": "4% (2×) and 0% (3×)"}, {"measurement": "% Red", "setting": "7823 0.5 mg/kg Days 1, 15, 30, 50 JYD Di L3 per NSG mouse, Table 20, vs Control", "value": "% Red: 87%"}, {"measurement": "% Rec, Mean", "setting": "7823 0.5 mg/kg Days 1, 15, 30, 50 JYD Di L3 per NSG mouse, recovery Days 40-42, Table 20", "value": 3, "unit": "%"}, {"measurement": "% Rec", "setting": "7823 0.5 mg/kg Days 1, 15, 30, 50 JYD Di L3 per NSG mouse, recovery Days 40-42, Table 20, 0.5 mg/kg", "value": "0% (2×) and 8% and 4% and 2%"}, {"measurement": "% Red", "setting": "7823 1 mg/kg Days 1, 15, 30, 50 JYD Di L3 per NSG mouse, Table 18, vs Control", "value": "% Red: 98%"}, {"measurement": "% Red", "setting": "7823 1.0 mg/kg Days 1, 15, 30, 50 JYD Di L3 per NSG mouse, Table 20, vs Control", "value": "% Red: 100%"}, {"measurement": "% Rec, Mean", "setting": "[1]", "value": 0, "unit": "%"}, {"measurement": "% Rec", "setting": "[1]", "value": 0, "unit": "%"}, {"measurement": "% Rec, Mean", "setting": "7823 1 mg/kg Days 1, 15, 30, 50 JYD Di L3 per NSG mouse, recovery Days 41 and 42, Table 18", "value": 1, "unit": "%"}, {"measurement": "% Rec", "setting": "7823 1 mg/kg Days 1, 15, 30, 50 JYD Di L3 per NSG mouse, recovery Days 41 and 42, Table 18, 1 mg/kg", "value": "2% (2×) and 0% (4×) and 4%"}, {"measurement": "% Red", "setting": "7823 5.0 mg/kg Days 1, 15, 30, 50 JYD Di L3 per NSG mouse, Table 20, vs Control", "value": "% Red: 100%"}, {"measurement": "% Rec, Mean", "setting": "[2]", "value": 0, "unit": "%"}, {"measurement": "% Rec", "setting": "[2]", "value": 0, "unit": "%"}, {"measurement": "Survival, Mean", "setting": "in vivo, 0.1 mg/kg", "value": 2}, {"measurement": "Survival, Mean", "setting": "in vivo, 0.25 mg/kg", "value": 1}, {"measurement": "Survival, Mean", "setting": "in vivo, 0.5 mg/kg", "value": 1}, {"measurement": "Survival", "setting": "in vivo, 5 mg/kg", "value": 0}, {"measurement": "Survival, Mean", "setting": "in vivo, 5 mg/kg", "value": 0}]}, {"smiles": "CC(C)C[C@H]1C(=O)O[C@H](C)C(=O)N(C)[C@@H](CC(C)(C)F)C(=O)O[C@H](Cc2ccc(C3CCOCC3)cc2)C(=O)N(C)[C@@H](CC(C)C)C(=O)O[C@H](C)C(=O)N(C)[C@@H](CC(C)(C)F)C(=O)O[C@H](Cc2ccc(C3CCOCC3)cc2)C(=O)N1C", "note": "[compound 8800]", "values": [{"measurement": "% Red", "setting": "8800 1 mg/kg Days 1, 15, 30, 50 JYD Di L3 per NSG mouse, Table 18, vs Control", "value": "% Red: 67%"}, {"measurement": "% Rec, Mean", "setting": "8800 1 mg/kg Days 1, 15, 30, 50 JYD Di L3 per NSG mouse, recovery Days 41 and 42, Table 18", "value": 14, "unit": "%"}, {"measurement": "% Rec", "setting": "8800 1 mg/kg Days 1, 15, 30, 50 JYD Di L3 per NSG mouse, recovery Days 41 and 42, Table 18, 1 mg/kg", "value": "12% (2×) and 16% and 8% and 4% and 26% and 18%"}, {"measurement": "Survival, Mean", "setting": "in vivo, 1 mg/kg", "value": 7}]}]}
